What was measured:
[1] = system: hippocampal cytokine mRNA (Il1b, Il6, Tnfa, Il10); test: Hippocampal cytokine mRNA (qRT-PCR) after co-injection of LPS and lumateperone; assay type: in vivo, mouse; details: mice, 2 h, relative change normalized to control (Dct method)
Description: All other reagents are obtained in the highest purity available from Sigma-Aldrich (St. Louis, MO) unless otherwise noted. […] Some rodents are given a cotreatment with a subcutaneous (SC) injection of lipopolysaccharide (LPS, 500 μg/kg; Sigma-Aldrich, ref #0127:B8) diluted in 0.9% injectable saline while control group animals receive injections of all vehicles matching the experimental conditions. […] On day 2, either no injection for naïve rats, or saline or LPS is injected (1 mg/kg, SC).
Animals. Adult, male C57BL/6 mice weighing 28-30 grams at the time of the experiment are housed in groups of 4 or 5 in small cages. Adult, male Sprague-Dawley rats weighing 175-200 grams at the time of arrival after shipping are housed in pairs. All animals are housed under standard laboratory housing conditions with a 12-hour light/dark cycle and ad libitum access to food and water.
Tissue Collection. […] Rats are euthanized 18 hours after LPS injection for sample collection. Hippocampi from mice and rats are rapidly dissected under RNAse-free conditions and placed in 1.5 mL Eppendorf tubes. When appropriate, samples are snap frozen in liquid nitrogen prior to storage at −80° C. until further analysis. Trunk blood is collected from mice into serum collection tubes, allowed to clot at room temperature for 1 hour, then centrifuged at 1,500 g for 10 minutes at 4° C.
Quantitative Real-Time PCR. Mouse hippocampal tissue is homogenized with glass beads in 1 mL of TRIzol reagent using a BeadBeater (Biospec Products, Bartlesville, OK). Heavy phase-lock gel tubes enabled separation of phases following the addition of 400 μL chloroform to the sample and centrifugation at 12,000 rpm for 10 minutes at room temperature. RNA is extracted using Qiagen Rneasy kit (Qiagen, Hilden, Germany). For cDNA synthesis, 2 μg of total RNA is used (SuperScript IV Reverse Transcriptase; ThermoFisher Scientific, Waltham, MA). The purity and concentration of RNA is measured with a Nanodrop spectrophotometer; the optical density (OD) 260/280 and OD 260/230 are within 1.8-2.3. In the hippocampus, 4 key markers of pro- and anti-inflammatory cytokines and chemokines (Il1b: ID Mm00434228_m1, Tnfa: ID Mm00443258_m1, 116: ID Mm00446190_m1, and I110: ID Mm01288386_m1; ThermoFisher Scientific) are initially chosen for analysis (n=5-12 per group). In subsequent experiments, the transcripts for other markers of inflammation are chosen for analysis including Icam1 (ID Mm00516023_m1; a cell adhesion molecule involved in immune cell migration), Cldn5 (ID Mm00727012_s1; a tight junctions protein), colony stimulating factor 1 (Csf1: ID Mm00432686_m1; a factor that regulates microglia function) and its receptor Csf1r (ID Mm01266652_m1), and the nucleotide binding and oligomerization domain-like receptor family pyrin domain-containing 3 inflammasome complex (Nlrp3: Mm00840904_m1). Gapdh (ID Mm99999915_g1) is chosen as a housekeeping gene. QuantStudio 7 (ThermoFisher Scientific) is used for analyzing the plates (MicroAmp Optical 384-well plates; Applied Biosystems, Waltham, MA, and ThermoFisher Scientific) that are loaded with TaqMan Universal Master Mix II without uracil-DNA glycosylate in a 20 μl reaction volume using 100 ng cDNA per well. All mRNAs are measured by qRT-PCR on ABI Prism 7900HT system using TaqMan Gene Expression Assays. Ct values of genes of interest are normalized to that of the reference gene (Gapdh).
Specific cytokines are elevated in serum or plasma of patients with MDD and other psychiatric disorders. Here, the gene and protein expression of a subset of pro- and anti-inflammatory cytokines is measured in mouse brain in response to an inflammatory challenge using a single dose of LPS (500 μg/kg) to induce acute brain inflammation. […] The results are shown in Table 1A as relative change in mRNA levels for each cytokine gene (Il1b, Il6, Tnfa, Il10) normalized to the control group using the Dct method (n=5-12 per group): […]

[2] = system: Sprague-Dawley rats; test: Open Field Test (OFT), locomotion; assay type: in vivo, rat; details: for Open field track length: rats given LPS 1 mg/kg SC, label LPS = LPS + Vehicle, label Luma = Luma 1 mg/kg IP before and after LPS, text: open field track length in meters
Description: Behavioral Evaluation. All behavioral tests are performed in the morning with adult male Sprague-Dawley rats (n=9-11 per group for the experiments with LPS, and n=13-14 per group for the naïve rats).
Open Field Test (OFT). Rats are placed in an open field box (76.5×76.5×40 cm^3) under dim lighting and locomotor activity over a 10 minute period is measured using ANY-Maze Software (Stoelting Co., Wood Dale, IL).
Locomotion in an open field (track length in meters) is also measured as a control. As shown in the following table, locomotor activity is […] regardless of the group: […]

[3] = Luma 0.3 mg/kg IP co-injected with LPS 500 μg/kg SC
[4] = Luma 3 mg/kg IP co-injected with LPS 500 μg/kg SC
[5] = Luma 8 mg/kg IP co-injected with LPS 500 μg/kg SC

With `CN1CCN2c3c(cccc31)[C@@H]1CN(CCCC(=O)c3ccc(F)cc3)CC[C@@H]12` [Luma, lumateperone] the “Hippocampal cytokine mRNA expression IL-6” value [1, 3] was 0.52, the “Hippocampal cytokine mRNA expression IL-10” value [1, 3] was −0.28 and the “Hippocampal cytokine mRNA expression TNF-alpha” value [1, 3] was 0.43. For the same compound, the “Hippocampal cytokine mRNA expression IL-1b” value [1, 4] was 0.85, the “Hippocampal cytokine mRNA expression IL-6” value [1, 4] was 0.15 and the “Hippocampal cytokine mRNA expression TNF-alpha” value [1, 4] was −0.09. For the same compound, the “Hippocampal cytokine mRNA expression IL-1b” value [1, 5] was 0.43, the “Hippocampal cytokine mRNA expression IL-6” value [1, 5] was 0.16 and the “Hippocampal cytokine mRNA expression TNF-alpha” value [1, 5] was −0.24. For the same compound, the OFT locomotion ([2]; naïve rats, Luma 1 mg/kg IP on days 1 and 3, 10 minutes) was 32.8 ± 10.2 m and the “Open field track length” value [2] was 12.27.
With “lipopolysaccharide [LPS, reference compound]” the “Hippocampal cytokine mRNA expression IL-1b” value ([1]; LPS 500 μg/kg SC + vehicle) was 2.88, the “Hippocampal cytokine mRNA expression IL-6” value ([1]; LPS 500 μg/kg SC + vehicle) was 1.03 and the “Hippocampal cytokine mRNA expression IL-10” value ([1]; LPS 500 μg/kg SC + vehicle) was 0.43. For the same compound, the “Hippocampal cytokine mRNA expression TNF-alpha” value ([1]; LPS 500 μg/kg SC + vehicle) was 1.75 and the “Open field track length” value [2] was 12.81.

Source: patent US12414948B2, “Methods” (INTRA-CELLULAR THERAPIES, INC., priority 2022, dated 2025)
